Test results: US20250313563A1, “GLYCOGEN SYNTHASE KINASE 3 INHIBITORS AND USES THEREOF” (The Broad Institute, Inc., priority 2022, published 2025)
Where two headings read alike, the source gives them in different places.

What was measured:
[1] = target: GSK3α (GST-full length GSK3α) (Homo sapiens (Human), UniProt P49840); experiment: GSK3α TR-FRET kinase assay; type: biochemical
Procedure, shortened: (§1)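 Full-length GST-tagged human enzyme (1 nM) is exposed to test compound for 30 min before substrates are added. Phosphorylation of a primed biotinylated glycogen synthase peptide proceeds 100 min at room temperature at low ATP (4 μM α; 2 μM β) or high ATP (1 mM). Product is quantified by TR-FRET.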

[2] = target: GSK3b (GST-full length GSK3b) (Homo sapiens (Human), UniProt P49841); experiment: GSK3b TR-FRET kinase assay; type: biochemical
Procedure, shortened: as §1

[3] = 1 nM GSK3α, 4 μM ATP, 30 minute preincubation, geometric mean, read-out: GSK3-A TR-FRET BIOCHEMICAL (TR-FRET), GMean, IC50
[4] = 1 nM GSK3b, 2 μM ATP, 30 minute preincubation, geometric mean, read-out: GSK3-B TR-FRET BIOCHEMICAL (TR-FRET), GMean, IC50
[5] = 1 nM GSK3α, 4 μM ATP, 30 minute preincubation, Table 16, read-out: GSK3-A TR-FRET BIOCHEMICAL (TR-FRET)
[6] = 1 nM GSK3b, 2 μM ATP, 30 minute preincubation, Table 16, read-out: GSK3-B TR-FRET BIOCHEMICAL (TR-FRET)
[7] = read-out: GSK3-A (TR-FRET 1 mM ATP), GMean, IC50, 1 mM ATP, geometric mean
[8] = read-out: GSK3-B (TR-FRET 1 mM ATP), GMean, IC50, 1 mM ATP, geometric mean
[9] = 1 nM GSK3α, 4 μM ATP, 30 minute preincubation, read-out: GSK3-A TR-FRET BIOCHEMICAL (TR-FRET), IC50
[10] = 1 nM GSK3b, 2 μM ATP, 30 minute preincubation, read-out: GSK3-B TR-FRET BIOCHEMICAL (TR-FRET), IC50
[11] = GSK3-A (TR-FRET 1 mM ATP), GMean, IC50, 1 mM ATP, geometric mean
[12] = GSK3-B (TR-FRET 1 mM ATP), GMean, IC50, 1 mM ATP, geometric mean

Sequence of GSK3α (GST-full length GSK3α) (P49840 whole entry): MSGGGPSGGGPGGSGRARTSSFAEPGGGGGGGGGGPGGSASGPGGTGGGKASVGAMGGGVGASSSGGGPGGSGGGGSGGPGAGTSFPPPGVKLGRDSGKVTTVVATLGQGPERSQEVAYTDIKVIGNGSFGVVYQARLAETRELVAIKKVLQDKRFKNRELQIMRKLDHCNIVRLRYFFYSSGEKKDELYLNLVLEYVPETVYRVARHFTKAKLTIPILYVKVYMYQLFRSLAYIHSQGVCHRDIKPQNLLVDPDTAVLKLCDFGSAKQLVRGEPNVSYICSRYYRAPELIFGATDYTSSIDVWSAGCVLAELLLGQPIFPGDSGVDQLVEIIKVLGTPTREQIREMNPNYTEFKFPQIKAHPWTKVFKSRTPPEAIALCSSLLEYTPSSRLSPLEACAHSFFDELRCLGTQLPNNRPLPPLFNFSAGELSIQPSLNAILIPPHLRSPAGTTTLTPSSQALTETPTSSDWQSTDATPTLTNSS
Sequence of GSK3b (GST-full length GSK3b) (P49841 whole entry): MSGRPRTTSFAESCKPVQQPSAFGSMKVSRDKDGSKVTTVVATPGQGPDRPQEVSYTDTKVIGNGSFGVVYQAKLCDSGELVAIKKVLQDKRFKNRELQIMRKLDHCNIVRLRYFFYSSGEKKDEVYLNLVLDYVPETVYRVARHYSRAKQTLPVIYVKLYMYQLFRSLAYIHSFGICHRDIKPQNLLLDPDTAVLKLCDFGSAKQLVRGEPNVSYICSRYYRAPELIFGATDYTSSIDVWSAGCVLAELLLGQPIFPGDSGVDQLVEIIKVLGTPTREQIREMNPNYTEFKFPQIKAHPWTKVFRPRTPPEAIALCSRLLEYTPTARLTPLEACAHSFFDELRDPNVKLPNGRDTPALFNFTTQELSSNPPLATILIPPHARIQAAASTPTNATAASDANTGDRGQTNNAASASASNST

SMILES | IC50 [1, 5] | IC50 [2, 6] | also measured
CCC1(c2cccc(-c3ccnc(C)c3C)c2)C2=C(CC(C)(C)NC2=O)Nc2n[nH]c(C)c21 (centres unmarked) [Compound 947399] | – | – | IC50 [1, 3]: 100 to 1000 nM; IC50 [2, 4]: 1000 to 5000 nM
CCC1(c2cccc(Oc3ncccn3)c2)C2=C(CC(C)(C)CC2=O)Nc2n[nH]cc21 (centres unmarked) [Compound 947400] | ≤ 100 nM | ≤ 100 nM | –
CCC1(c2cccc(-c3ccnc(C)c3F)c2)C2=C(CC(C)(C)NC2=O)Nc2n[nH]c(C)c21 (centres unmarked) [Compound 947402] | – | – | IC50 [1, 3]: ≤ 100 nM; IC50 [2, 4]: 100 to 1000 nM
CCC1(c2cccc(-c3cnn(C)c3C)c2)C2=C(CC(C)(C)NC2=O)Nc2n[nH]c(C(F)(F)F)c21 (centres unmarked) [Compound 947403] | – | – | IC50 [1, 3]: ≤ 100 nM; IC50 [1, 7]: ≤ 100 nM; IC50 [2, 4]: ≤ 100 nM; IC50 [2, 8]: 100 to 1000 nM
CCC1(c2cccc(-c3ccncc3C)c2)C2=C(CC(C)(C)NC2=O)Nc2n[nH]c(C(F)(F)F)c21 (centres unmarked) [Compound 947404] | – | – | IC50 [1, 3]: ≤ 100 nM; IC50 [1, 7]: ≤ 100 nM; IC50 [2, 4]: ≤ 100 nM; IC50 [2, 8]: 100 to 1000 nM
CCC1(c2cccc(-c3cnn(C)c3)c2)C2=C(CC(C)(C)NC2=O)Nc2n[nH]c(C(F)(F)F)c21 (centres unmarked) [Compound 947405] | – | – | IC50 [1, 3]: ≤ 100 nM; IC50 [1, 7]: ≤ 100 nM; IC50 [2, 4]: ≤ 100 nM; IC50 [2, 8]: 100 to 1000 nM
CC[C@]1(c2cccc(-c3ccnc(C)c3)c2)C2=C(C[C@]3(CCOC3)NC2=O)Nc2n[nH]cc21 [Compound 947406] | ≤ 100 nM | 100 to 1000 nM | IC50 [1, 7]: 100 to 1000 nM; IC50 [2, 8]: > 5000 nM
CCC1(c2cccc(-c3ccnc(C)c3)c2)C2=C(CC3(CCOC3)CC2=O)Nc2n[nH]cc21 (centres unmarked) [Compound 947407] | ≤ 100 nM | 1000 to 5000 nM | –
CC[C@]1(c2cccc(-c3c(C)nn(C)c3C)c2)C2=C(CC(C)(C)NC2=O)Nc2n[nH]cc21 [Compound 947408] | – | – | IC50 [1, 3]: ≤ 100 nM; IC50 [1, 7]: 100 to 1000 nM; IC50 [2, 4]: ≤ 100 nM; IC50 [2, 8]: 1000 to 5000 nM
CC[C@]1(c2cccc(-c3ccncc3C)c2)C2=C(CC(C)(C)NC2=O)Nc2n[nH]c(C)c21 [Compound 947409] | – | – | IC50 [1, 3]: 1000 to 5000 nM; IC50 [2, 4]: > 5000 nM
CC[C@]1(c2cccc(-c3cnn4c3CCCC4)c2)C2=C(CC(C)(C)NC2=O)Nc2n[nH]cc21 [Compound 947410] | – | – | IC50 [1, 3]: ≤ 100 nM; IC50 [1, 7]: 100 to 1000 nM; IC50 [2, 4]: 100 to 1000 nM; IC50 [2, 8]: > 5000 nM
CCC1(c2cccc(-c3ccnc(C)c3)c2)C2=C(CC3(CCOC3)CC2=O)Nc2n[nH]cc21 (centres unmarked) [Compound 947412] | 1000 to 5000 nM | > 5000 nM | –
CC[C@@]1(c2cccc(-c3c(C)nn(C)c3C)c2)C2=C(CC(C)(C)NC2=O)Nc2n[nH]cc21 [Compound 947413] | – | – | IC50 [1, 3]: 1000 to 5000 nM; IC50 [2, 4]: > 5000 nM
CC[C@@]1(c2cccc(-c3ccncc3C)c2)C2=C(CC(C)(C)NC2=O)Nc2n[nH]c(C)c21 [Compound 947414] | – | – | IC50 [1, 3]: ≤ 100 nM; IC50 [1, 7]: 100 to 1000 nM; IC50 [2, 4]: ≤ 100 nM; IC50 [2, 8]: 1000 to 5000 nM
CCC1(c2cccc(-c3cnn4c3CCCC4)c2)C2=C(CC(C)(C)NC2=O)Nc2n[nH]cc21 (centres unmarked) [Compound 947415] | – | – | IC50 [1, 3]: 1000 to 5000 nM; IC50 [2, 4]: > 5000 nM
CCC1(c2cccc(C(F)(F)F)c2)C2=C(CCN(c3cccnc3)C2=O)Nc2n[nH]cc21 (centres unmarked) [Compound 947433] | – | – | IC50 [1, 3]: > 5000 nM; IC50 [2, 4]: > 5000 nM
CC1(C)CC(=O)C2=C(C1)Nc1n[nH]cc1C21CCN(S(=O)(=O)c2ccn(-c3ccccc3)n2)CC1 [Compound 947461] | – | – | IC50 [1, 9]: ≤ 100 nM; IC50 [2, 10]: ≤ 100 nM
CC1(C)CC(=O)C2=C(C1)Nc1n[nH]cc1C21CCN(S(=O)(=O)c2cccc3c2OCCO3)CC1 [Compound 947464] | – | – | IC50 [1, 9]: ≤ 100 nM; IC50 [1, 11]: ≤ 100 nM; IC50 [2, 10]: ≤ 100 nM; IC50 [2, 12]: 100 to 1000 nM
CC1(C)CC(=O)C2=C(C1)Nc1n[nH]cc1C21CCN(S(=O)(=O)c2ccc3ccccc3n2)CC1 [Compound 947476] | – | – | IC50 [1, 9]: ≤ 100 nM; IC50 [2, 10]: ≤ 100 nM
CC1(C)CC(=O)C2=C(C1)Nc1n[nH]cc1C21CCN(S(=O)(=O)c2c(F)cc(F)cc2F)CC1 [Compound 947484] | – | – | IC50 [1, 9]: ≤ 100 nM; IC50 [2, 10]: ≤ 100 nM
CC1(C)CC(=O)C2=C(C1)Nc1n[nH]cc1C21COC2(CN(C(=O)C(F)F)C2)C1 (centres unmarked) [Compound 947485] | – | – | IC50 [1, 9]: ≤ 100 nM; IC50 [2, 10]: ≤ 100 nM
CC1(C)CC(=O)C2=C(C1)Nc1n[nH]cc1C21COC2(CN(C(=O)C3CCC(F)C3)C2)C1 (centres unmarked) [Compound 947486] | – | – | IC50 [1, 9]: ≤ 100 nM; IC50 [2, 10]: ≤ 100 nM
CC1(C)CC(=O)C2=C(C1)Nc1n[nH]cc1C21COC2(CN(C(=O)C3(F)CC3)C2)C1 (centres unmarked) [Compound 947487] | – | – | IC50 [1, 9]: ≤ 100 nM; IC50 [2, 10]: ≤ 100 nM
CCC1(c2cccc(-c3c(C)cnn3C)c2)C2=C(CC(C)(C)CC2=O)Nc2n[nH]cc21 (centres unmarked) [Compound 947491] | ≤ 100 nM | ≤ 100 nM | –
CCC1(c2cccc(-c3cnn4c3CCC4)c2)C2=C(CC(C)(C)CC2=O)Nc2n[nH]cc21 (centres unmarked) [Compound 947494] | ≤ 100 nM | 100 to 1000 nM | –
CC[C@]1(c2cccc(Cc3ncccn3)c2)C2=C(CC(C)(C)CC2=O)Nc2n[nH]cc21 [Compound 947499] | 1000 to 5000 nM | > 5000 nM | IC50 [1, 7]: > 5000 nM; IC50 [2, 8]: > 5000 nM

Now from value to compound, other results behind:

IC50 [1, 5] | IC50 [2, 6] | SMILES | also measured
≤ 100 nM | 100 to 1000 nM | Cc1ccc(S(=O)(=O)N2CCC3(CC2)C2=C(CC(C)(C)CC2=O)Nc2n[nH]cc23)cc1 [Compound 947459] | –
≤ 100 nM | ≤ 100 nM | Cc1c(S(=O)(=O)N2CCC3(CC2)C2=C(CC(C)(C)CC2=O)Nc2n[nH]cc23)cnn1C [Compound 947460] | –
≤ 100 nM | ≤ 100 nM | CC1(C)CC(=O)C2=C(C1)Nc1n[nH]cc1C21CCN(S(=O)(=O)c2cnc3ccccc3c2)CC1 [Compound 947462] | IC50 [1, 11]: 100 to 1000 nM; IC50 [2, 12]: 1000 to 5000 nM
≤ 100 nM | 100 to 1000 nM | CC1(C)CC(=O)C2=C(C1)Nc1n[nH]cc1C21CCN(S(=O)(=O)c2cnccc2C(F)(F)F)CC1 [Compound 947463] | –
≤ 100 nM | ≤ 100 nM | COc1cncc(S(=O)(=O)N2CCC3(CC2)C2=C(CC(C)(C)CC2=O)Nc2n[nH]cc23)c1 [Compound 947465] | –
≤ 100 nM | 100 to 1000 nM | CC1(C)CC(=O)C2=C(C1)Nc1n[nH]cc1C21CCN(S(=O)(=O)c2cnnn2-c2ccccc2)CC1 [Compound 947466] | –
≤ 100 nM | 100 to 1000 nM | CC1(C)CC(=O)C2=C(C1)Nc1n[nH]cc1C21CCN(S(=O)(=O)c2cnc3n2CCC3)CC1 [Compound 947467] | –
≤ 100 nM | ≤ 100 nM | Cc1ccc(S(=O)(=O)N2CCC3(CC2)C2=C(CC(C)(C)CC2=O)Nc2n[nH]cc23)c(C)c1 [Compound 947468] | –
≤ 100 nM | ≤ 100 nM | CC1(C)CC(=O)C2=C(C1)Nc1n[nH]cc1C21CCN(S(=O)(=O)c2cccc3ncccc23)CC1 [Compound 947469] | –
≤ 100 nM | ≤ 100 nM | CC1(C)CC(=O)C2=C(C1)Nc1n[nH]cc1C21CCN(S(=O)(=O)c2cccc3c2CCCC3)CC1 [Compound 947470] | –
≤ 100 nM | 100 to 1000 nM | Cc1ccc(C)c(S(=O)(=O)N2CCC3(CC2)C2=C(CC(C)(C)CC2=O)Nc2n[nH]cc23)c1 [Compound 947471] | –
≤ 100 nM | 100 to 1000 nM | CC1(C)CC(=O)C2=C(C1)Nc1n[nH]cc1C21CCN(S(=O)(=O)c2cn3c(n2)CCCC3)CC1 [Compound 947472] | –
100 to 1000 nM | 100 to 1000 nM | CC(C)c1ccccc1S(=O)(=O)N1CCC2(CC1)C1=C(CC(C)(C)CC1=O)Nc1n[nH]cc12 [Compound 947473] | –
≤ 100 nM | ≤ 100 nM | CC1(C)CC(=O)C2=C(C1)Nc1n[nH]cc1C21CCN(S(=O)(=O)c2cnn3c2CCCC3)CC1 [Compound 947474] | –
≤ 100 nM | ≤ 100 nM | Cc1cc(S(=O)(=O)N2CCC3(CC2)C2=C(CC(C)(C)CC2=O)Nc2n[nH]cc23)ccc1Cl [Compound 947475] | –
≤ 100 nM | ≤ 100 nM | COCCn1cc(S(=O)(=O)N2CCC3(CC2)C2=C(CC(C)(C)CC2=O)Nc2n[nH]cc23)cn1 [Compound 947477] | –
≤ 100 nM | ≤ 100 nM | COc1ccc(S(=O)(=O)N2CCC3(CC2)C2=C(CC(C)(C)CC2=O)Nc2n[nH]cc23)cc1F [Compound 947478] | –
≤ 100 nM | ≤ 100 nM | CC1(C)CC(=O)C2=C(C1)Nc1n[nH]cc1C21CCN(S(=O)(=O)c2ccccc2C#N)CC1 [Compound 947479] | –
≤ 100 nM | ≤ 100 nM | CC1(C)CC(=O)C2=C(C1)Nc1n[nH]cc1C21CCN(S(=O)(=O)c2cnc3n2CCCC3)CC1 [Compound 947480] | –
≤ 100 nM | ≤ 100 nM | Cc1cc(S(=O)(=O)N2CCC3(CC2)C2=C(CC(C)(C)CC2=O)Nc2n[nH]cc23)ccn1 [Compound 947481] | –
≤ 100 nM | ≤ 100 nM | Cc1ccc(S(=O)(=O)N2CCC3(CC2)C2=C(CC(C)(C)CC2=O)Nc2n[nH]cc23)cn1 [Compound 947482] | –
≤ 100 nM | ≤ 100 nM | CC1(C)CC(=O)C2=C(C1)Nc1n[nH]cc1C21CCN(S(=O)(=O)c2cnn3c2OCCC3)CC1 [Compound 947483] | –
